According to ChEMBL document CHEMBL4680187, “Optimization of EphA2 antagonists based on a lithocholic acid core led to the identification of UniPR505, a new 3α-carbamoyloxy derivative with antiangiogenetic properties” (Eur J Med Chem, 2020):

What was measured:
Ephrin type-B receptor 3 = molecular target: T1, Ephrin type-B receptor 3 (Mus musculus, UniProt P54754); assay: Displacement of biotinylated ephrin-B1-Fc from mouse EphB3 Fc preincubated for 1 hr followed by ephrin-B1-FC addition and measured after 4 hrs by ELISA
T1 sequence (P54754 whole entry): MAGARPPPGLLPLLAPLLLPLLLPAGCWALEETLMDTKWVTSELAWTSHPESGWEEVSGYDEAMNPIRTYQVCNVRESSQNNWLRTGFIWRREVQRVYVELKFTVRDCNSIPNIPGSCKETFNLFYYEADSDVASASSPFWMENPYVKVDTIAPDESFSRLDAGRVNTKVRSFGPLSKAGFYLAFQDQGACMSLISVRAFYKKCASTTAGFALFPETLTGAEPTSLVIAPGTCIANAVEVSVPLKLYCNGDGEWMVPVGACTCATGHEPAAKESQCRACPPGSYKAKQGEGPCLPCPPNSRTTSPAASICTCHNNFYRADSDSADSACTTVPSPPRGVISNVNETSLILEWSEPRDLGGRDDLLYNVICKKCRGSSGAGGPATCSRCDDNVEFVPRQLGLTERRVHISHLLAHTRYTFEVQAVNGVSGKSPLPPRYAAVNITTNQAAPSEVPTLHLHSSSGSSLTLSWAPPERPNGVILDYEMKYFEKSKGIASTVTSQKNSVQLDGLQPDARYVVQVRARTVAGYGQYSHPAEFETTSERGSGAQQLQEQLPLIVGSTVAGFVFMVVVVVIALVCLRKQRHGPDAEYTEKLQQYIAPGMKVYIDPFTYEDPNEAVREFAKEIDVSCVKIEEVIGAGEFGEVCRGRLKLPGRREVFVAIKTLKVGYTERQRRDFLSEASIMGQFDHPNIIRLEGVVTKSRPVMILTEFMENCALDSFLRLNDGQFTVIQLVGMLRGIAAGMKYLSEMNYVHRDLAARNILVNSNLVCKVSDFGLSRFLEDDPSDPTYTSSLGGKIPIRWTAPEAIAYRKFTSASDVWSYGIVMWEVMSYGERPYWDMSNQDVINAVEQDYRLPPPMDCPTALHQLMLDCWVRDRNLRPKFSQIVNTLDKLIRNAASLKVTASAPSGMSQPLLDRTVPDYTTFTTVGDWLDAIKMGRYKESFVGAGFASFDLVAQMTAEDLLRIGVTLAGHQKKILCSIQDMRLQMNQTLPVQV

Ephrin type-A receptor 3 = molecular target: T2, Ephrin type-A receptor 3 (Mus musculus, UniProt P29319); assay: Displacement of biotinylated ephrin-A1-Fc from mouse EphA3 Fc preincubated for 1 hr followed by ephrin-A1-FC addition and measured after 4 hrs by ELISA
T2 sequence (P29319 whole entry): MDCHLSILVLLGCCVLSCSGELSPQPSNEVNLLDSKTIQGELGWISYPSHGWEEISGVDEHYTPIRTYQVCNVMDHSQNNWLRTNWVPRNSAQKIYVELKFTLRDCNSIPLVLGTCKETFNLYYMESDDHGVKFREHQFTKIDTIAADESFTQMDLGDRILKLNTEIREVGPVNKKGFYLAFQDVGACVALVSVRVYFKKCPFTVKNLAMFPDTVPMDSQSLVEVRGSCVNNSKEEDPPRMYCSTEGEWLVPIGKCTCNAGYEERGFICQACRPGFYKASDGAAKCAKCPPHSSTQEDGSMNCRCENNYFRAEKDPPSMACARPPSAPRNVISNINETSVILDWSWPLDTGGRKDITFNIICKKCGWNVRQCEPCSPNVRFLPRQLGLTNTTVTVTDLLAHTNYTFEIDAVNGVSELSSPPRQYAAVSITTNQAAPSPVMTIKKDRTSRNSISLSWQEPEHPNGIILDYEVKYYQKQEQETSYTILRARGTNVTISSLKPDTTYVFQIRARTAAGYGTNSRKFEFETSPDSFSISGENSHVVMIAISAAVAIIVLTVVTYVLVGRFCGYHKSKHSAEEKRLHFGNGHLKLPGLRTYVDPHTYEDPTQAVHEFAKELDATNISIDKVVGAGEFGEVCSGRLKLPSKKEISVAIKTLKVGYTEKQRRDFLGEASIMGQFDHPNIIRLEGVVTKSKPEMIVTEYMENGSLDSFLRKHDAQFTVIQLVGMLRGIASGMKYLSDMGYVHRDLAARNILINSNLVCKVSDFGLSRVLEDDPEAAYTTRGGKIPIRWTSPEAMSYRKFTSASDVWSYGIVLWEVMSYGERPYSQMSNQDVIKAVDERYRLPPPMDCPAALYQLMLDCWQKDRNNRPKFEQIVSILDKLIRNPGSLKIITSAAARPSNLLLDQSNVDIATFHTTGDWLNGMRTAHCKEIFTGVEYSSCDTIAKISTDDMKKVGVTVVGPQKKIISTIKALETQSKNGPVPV

Ephrin type-B receptor 1 = molecular target: T3, Ephrin type-B receptor 1 (Rattus norvegicus, UniProt P09759); assay: Displacement of biotinylated ephrin-B1-Fc from rat EphB1 Fc preincubated for 1 hr followed by ephrin-B1-FC addition and measured after 4 hrs by ELISA
T3 sequence (P09759 whole entry): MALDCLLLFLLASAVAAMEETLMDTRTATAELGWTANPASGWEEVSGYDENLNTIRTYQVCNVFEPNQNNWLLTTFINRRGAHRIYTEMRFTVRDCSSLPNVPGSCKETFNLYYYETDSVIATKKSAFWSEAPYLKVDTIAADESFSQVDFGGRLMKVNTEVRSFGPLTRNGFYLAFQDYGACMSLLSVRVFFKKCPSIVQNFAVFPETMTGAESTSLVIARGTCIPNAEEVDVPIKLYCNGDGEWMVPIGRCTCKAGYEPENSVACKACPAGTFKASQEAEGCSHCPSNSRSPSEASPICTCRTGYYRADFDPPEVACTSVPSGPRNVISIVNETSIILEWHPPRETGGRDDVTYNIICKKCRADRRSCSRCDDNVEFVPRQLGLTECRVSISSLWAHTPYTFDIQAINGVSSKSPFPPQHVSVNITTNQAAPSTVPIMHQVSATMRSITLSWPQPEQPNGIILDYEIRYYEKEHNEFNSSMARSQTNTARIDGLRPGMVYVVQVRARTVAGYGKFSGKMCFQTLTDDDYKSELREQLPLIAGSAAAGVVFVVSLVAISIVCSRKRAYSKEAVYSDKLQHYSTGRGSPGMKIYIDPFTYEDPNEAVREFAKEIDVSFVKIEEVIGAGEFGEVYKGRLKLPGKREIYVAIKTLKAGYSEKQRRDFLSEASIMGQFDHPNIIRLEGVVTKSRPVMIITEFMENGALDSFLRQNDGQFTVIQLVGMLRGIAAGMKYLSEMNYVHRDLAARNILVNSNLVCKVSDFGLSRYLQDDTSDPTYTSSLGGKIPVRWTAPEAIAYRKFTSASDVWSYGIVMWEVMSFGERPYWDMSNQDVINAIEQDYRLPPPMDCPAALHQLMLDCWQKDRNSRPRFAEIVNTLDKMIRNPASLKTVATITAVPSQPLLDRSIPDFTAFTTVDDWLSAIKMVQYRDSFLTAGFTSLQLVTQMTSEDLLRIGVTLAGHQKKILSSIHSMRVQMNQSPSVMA

CCNC(=O)O[C@@H]1CC[C@@]2(C)[C@H](CC[C@@H]3[C@@H]2CC[C@]2(C)[C@@H]([C@H](C)CCC(=O)N[C@H](CC(=O)O)Cc4c[nH]c5ccccc45)CC[C@@H]32)C1
IC50 (Ephrin type-B receptor 3): 11 µM | IC50 (Ephrin type-A receptor 3): 4.5 µM | IC50 (Ephrin type-B receptor 1): > 30 µM
